Assay results: ChEMBL document CHEMBL1681651, “A broad spectrum anticancer nucleoside with selective toxicity against human colon cells in vitro” (2011)

How the values were obtained:
Type in all cases: functional
SK-MEL-2 = assay: Growth inhibition of human SK-MEL-2 cells assessed as cell growth at 10 uM after 48 hrs by SRB assay; conditions: SK-MEL-2, 48 h, read-out: Activity
[1] = Growth inhibition of human […] cells assessed as cell growth at 1 mM after 48 hrs by SRB assay; conditions: read-out: Activity
T47D = assay: Growth inhibition of human T47D cells assessed as cell growth at 1 uM after 48 hrs by SRB assay; conditions: read-out: Activity
NCI-H322M [2] = assay: Growth inhibition of human NCI-H322M cells assessed as cell growth at 100 uM after 48 hrs by SRB assay; conditions: read-out: Activity
NCI-H226 = assay: Growth inhibition of human NCI-H226 cells assessed as cell growth at 100 uM after 48 hrs by SRB assay; conditions: NCI-H226, 48 h, read-out: Activity
NCI-H522 = assay: Growth inhibition of human NCI-H522 cells assessed as cell growth at 0.1 uM after 48 hrs by SRB assay; conditions: NCI-H522, 48 h, read-out: Activity
MDA-MB-435 [3] = assay: Growth inhibition of human MDA-MB-435 cells assessed as cell growth at 100 uM after 48 hrs by SRB assay; conditions: MDA-MB-435, 48 h, read-out: Activity
UACC-62 [4] = assay: Growth inhibition of human UACC62 cells assessed as cell growth at 10 uM after 48 hrs by SRB assay; conditions: UACC-62, 48 h, read-out: Activity
SK-MEL-5 = assay: Growth inhibition of human SK-MEL-5 cells assessed as cell growth at 1 mM after 48 hrs by SRB assay; conditions: SK-MEL-5, 48 h, read-out: Activity
HCT-15 [5] = assay: Growth inhibition of human HCT15 cells after 48 hrs by […] growth inhibition assay; conditions: HCT-15, 48 h
DU-145 [6] = assay: Growth inhibition of human DU145 cells assessed as cell growth at 1 mM after 48 hrs by SRB assay; conditions: DU-145, 48 h, read-out: Activity
HOP-62 = assay: Growth inhibition of human HOP62 cells assessed as cell growth at 1 uM after 48 hrs by SRB assay; conditions: HOP-62, 48 h, read-out: Activity
OVCAR-8 = assay: Growth inhibition of human OVCAR8 cells assessed as cell growth at 1 mM after 48 hrs by SRB assay; conditions: OVCAR-8, 48 h, read-out: Activity
HCT-15 [7] = assay: Growth inhibition of human HCT15 cells assessed as cell growth at 0.1 uM after 48 hrs by SRB assay; conditions: HCT-15, 48 h, read-out: Activity
MDA-MB-435 [8] = assay: Growth inhibition of human MDA-MB-435 cells assessed as cell growth at 0.1 uM after 48 hrs by SRB assay; conditions: MDA-MB-435, 48 h, read-out: Activity
HCC 2998 [9] = assay: Growth inhibition of human HCC2998 cells assessed as cell growth at 0.1 uM after 48 hrs by SRB assay; conditions: HCC 2998, 48 h, read-out: Activity
DU-145 [10] = assay: Growth inhibition of human DU145 cells assessed as cell growth at 0.1 uM after 48 hrs by SRB assay; conditions: DU-145, 48 h, read-out: Activity
HT-29 = assay: Growth inhibition of human HT-29 cells assessed as cell growth at 1 mM after 48 hrs by SRB assay; conditions: HT-29, 48 h, read-out: Activity
RXF 393 = assay: Growth inhibition of human RXF393 cells assessed as cell growth at 1 uM after 48 hrs by SRB assay; conditions: RXF 393, 48 h, read-out: Activity
UACC-62 [11] = assay: Growth inhibition of human UACC62 cells assessed as cell growth at 100 uM after 48 hrs by SRB assay; conditions: UACC-62, 48 h, read-out: Activity
SN12C = assay: Growth inhibition of human SN12C cells after 48 hrs by […] growth inhibition assay
M14 [12] = assay: Growth inhibition of human M14 cells after 48 hrs by […] growth inhibition assay; conditions: M14, 48 h
[13] = Growth inhibition of human […] cells assessed as cell growth at 0.1 uM after 48 hrs by SRB assay; conditions: read-out: Activity
M14 [14] = assay: Growth inhibition of human M14 cells assessed as cell growth at 100 uM after 48 hrs by SRB assay; conditions: M14, 48 h, read-out: Activity
A498 = assay: Growth inhibition of human A498 cells assessed as cell growth at 1 uM after 48 hrs by SRB assay; conditions: A498, 48 h, read-out: Activity
HCC 2998 [15] = assay: Growth inhibition of human HCC2998 cells after 48 hrs by […] growth inhibition assay; conditions: HCC 2998, 48 h
NCI-H322M [16] = assay: Growth inhibition of human NCI-H322M cells assessed as cell growth at 1 mM after 48 hrs by SRB assay; conditions: read-out: Activity
U-251 = assay: Growth inhibition of human U251 cells after 48 hrs by […] growth inhibition assay; conditions: U-251, 48 h
EKVX = assay: Growth inhibition of human EKVX cells assessed as cell growth at 1 uM after 48 hrs by SRB assay; conditions: read-out: Activity
CCRF-CEM = assay: Growth inhibition of human CCRF-CEM cells after 48 hrs by […] growth inhibition assay
UACC-257 = assay: Growth inhibition of human UACC257 cells after 48 hrs by […] growth inhibition assay; conditions: UACC-257, 48 h
SF-539 = assay: Growth inhibition of human SF539 cells assessed as cell growth at 100 uM after 48 hrs by SRB assay; conditions: SF-539, 48 h, read-out: Activity
[17] = read-out: LC50 (the source's name)
[18] = read-out: pLC50 (the source's name) (converted)

Question: What does the source list for `CCOC(=O)C[C@H]1[C@@H](O[Si](C)(C)C(C)(C)C)[C@H](n2cnc3c(NC(=O)Nc4ccccc4)ncnc32)O[C@@H]1CNC(=O)NC`?
Answer: growth at 10 µM (SK-MEL-2): 99%; growth at 1000 µM [1]: -57%; growth at 1 µM (T47D): 89%; growth at 100 µM (NCI-H322M [2]): 89%; growth at 100 µM (NCI-H226): 71%; growth at 0.1 µM (NCI-H522): 89%; growth at 100 µM (MDA-MB-435 [3]): 40%; growth at 10 µM (UACC-62 [4]): 97%; growth at 1000 µM (SK-MEL-5): 11%; GI50 (HCT-15 [5]; read-out: GI50): 8.5 µM; CC50 (HCT-15 [5]; [17]): > 100 µM; TGI (HCT-15 [5]; read-out: TGI): > 100 µM; GI50 (HCT-15 [5]; read-out: pGI50 (converted)): 8.51 µM; CC50 (HCT-15 [5]; [18]): > 100 µM; TGI (HCT-15 [5]; read-out: pTGI): > 100 µM; growth at 1000 µM (DU-145 [6]): -59%; growth at 1 µM (HOP-62): 92%; growth at 1000 µM (OVCAR-8): -4%; growth at 0.1 µM (HCT-15 [7]): 99%; growth at 0.1 µM (MDA-MB-435 [8]): 95%; growth at 0.1 µM (HCC 2998 [9]): 101%; growth at 0.1 µM (DU-145 [10]): 110%; growth at 1000 µM (HT-29): 3%; growth at 1 µM (RXF 393): 97%; growth at 100 µM (UACC-62 [11]): 82%; GI50 (SN12C; read-out: GI50): 9.1 µM; CC50 (SN12C; [17]): > 100 µM; TGI (SN12C; read-out: TGI): > 100 µM; GI50 (SN12C; read-out: pGI50 (converted)): 9.12 µM; CC50 (SN12C; [18]): > 100 µM; TGI (SN12C; read-out: pTGI (converted)): > 100 µM; GI50 (M14 [12]; read-out: GI50): 2.51 µM; CC50 (M14 [12]; [17]): 78.6 µM; TGI (M14 [12]; read-out: TGI): 11.6 µM; GI50 (M14 [12]; read-out: pGI50 (converted)): 2.51 µM; CC50 (M14 [12]; [18]): 79.4 µM; TGI (M14 [12]; read-out: pTGI (converted)): 11.5 µM; growth at 0.1 µM [13]: 77%; growth at 100 µM (M14 [14]): 4%; growth at 1 µM (A498): 92%; GI50 (HCC 2998 [15]; read-out: GI50): > 100 µM; CC50 (HCC 2998 [15]; [17]): > 100 µM; TGI (HCC 2998 [15]; read-out: TGI): > 100 µM; GI50 (HCC 2998 [15]; read-out: pGI50 (converted)): > 100 µM; CC50 (HCC 2998 [15]; [18]): > 100 µM; TGI (HCC 2998 [15]; read-out: pTGI (converted)): > 100 µM; growth at 1000 µM (NCI-H322M [16]): 72%; GI50 (U-251; read-out: GI50): 4.69 µM; CC50 (U-251; [17]): 76 µM; TGI (U-251; read-out: TGI): 20.9 µM; GI50 (U-251; read-out: pGI50 (converted)): 4.68 µM; CC50 (U-251; [18]): 75.9 µM; TGI (U-251; read-out: pTGI (converted)): 20.9 µM; growth at 1 µM (EKVX): 90%; GI50 (CCRF-CEM; read-out: GI50): 6.69 µM; LC50 (lethal concentration, 50% net cell kill) (CCRF-CEM; read-out: LC50): > 100 µM; TGI (CCRF-CEM; read-out: TGI): 88.6 µM; GI50 (CCRF-CEM; read-out: pGI50 (converted)): 6.76 µM; LC50 (lethal concentration, 50% net cell kill) (CCRF-CEM; read-out: pLC50 (converted)): > 100 µM; TGI (CCRF-CEM; read-out: pTGI (converted)): 89.1 µM; GI50 (UACC-257; read-out: GI50): 5.68 µM; CC50 (UACC-257; [17]): > 100 µM; TGI (UACC-257; read-out: TGI): > 100 µM; GI50 (UACC-257; read-out: pGI50 (converted)): 5.62 µM; CC50 (UACC-257; [18]): > 100 µM; TGI (UACC-257; read-out: pTGI (converted)): > 100 µM; growth at 100 µM (SF-539): 29%
